Measured values taken from patent US20100105727A1, “NOVEL BENZAMIDE DERIVATIVES AND PROCESS FOR THE PREPARTION THEREOF” (DONG-A-PHARM. CO., LTD., priority 2007, published 2010).

The molecules below were run against T1, human 5-HT4 receptor (Homo sapiens, UniProt Q13639) (assay: Binding affinity of compounds for 5-HT4 receptor (radioligand displacement, membrane lysates of COS-7 cells)). Details: inhibition of specific binding of 0.595 nM [H3]-AGR113808; COS-7 cell membrane lysates expressing human 5-HT4 receptor.
T1 construct: expressed in transfected cells; host or cells: COS-7
Procedure: For this purpose, COS-7 cells expressing the human 5-HT4 receptor were constructed and lysed to obtain cell membrane lysates which were then used in binding assay experiments. For binding assay, the membrane lysates were mixed and incubated with different concentrations of test materials and [H3]-AGR113808. […] After incubation was completed, the reaction products were collected in a GF/B glass fiber filter using a Packard cell harvester, and the bound radioactivity was then determined using a liquid cell scintillation counter (Packard TopCount NXT™, Perkin Elmer). Specific binding of the radioligand to the 5-HT4 receptor was calculated by subtracting the non-specific binding of the radioligand from the total radioligand binding. IC50 was calculated from % inhibition of specific binding of the radioligand to the 5-HT4 receptor, with respect to varying concentrations of the test materials.

T1 sequence (Q13639 whole entry): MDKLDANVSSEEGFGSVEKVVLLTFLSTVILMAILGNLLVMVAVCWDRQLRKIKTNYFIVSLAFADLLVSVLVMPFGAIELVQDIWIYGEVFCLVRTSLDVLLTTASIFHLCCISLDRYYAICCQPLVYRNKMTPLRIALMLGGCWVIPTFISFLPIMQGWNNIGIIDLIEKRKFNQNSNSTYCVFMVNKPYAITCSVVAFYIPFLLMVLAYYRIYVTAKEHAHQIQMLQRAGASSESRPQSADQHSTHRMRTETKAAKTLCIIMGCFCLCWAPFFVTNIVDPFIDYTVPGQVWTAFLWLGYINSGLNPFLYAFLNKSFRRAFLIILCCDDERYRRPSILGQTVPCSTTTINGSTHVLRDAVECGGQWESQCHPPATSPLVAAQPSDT

Structure (SMILES) | IC50
COc1cc(N)c(Cl)cc1C(=O)N[C@H]1CCN(CCCCCC(=O)Nc2cc(C)cc(C)n2)C[C@H]1OC (relative stereo) [Compound 60, cis-4-amino-5-chloro-N-[1-(6-oxo-6-(4,6-dimethylpyridin-2-ylamino)hexyl)-3-methoxypiperidin-4-yl]-2-methoxybenzamide] | 0.085 µM
COc1cc(N)c(Cl)cc1C(=O)N[C@H]1CCN(CC2CCN(S(=O)(=O)C(C)C)CC2)C[C@H]1OC (relative stereo) [Compound 42, cis-4-amino-5-chloro-N-[1-((1-(isopropylsulfonyl)piperidin-4-yl)methyl)-3-methoxypiperidin-4-yl]-2-methoxybenzamide] | 0.047 µM
CCC(C)CCOC(=O)N1CCC(CN2CC[C@H](NC(=O)c3cc(Cl)c(N)cc3OC)[C@H](OC)C2)CC1 (relative stereo) [Compound 12, 3-methyl-pentyl 4-[(cis-4-(4-amino-5-chloro-2-methoxybenzamido)-3-methoxypiperidin-1-yl)methyl]piperidine-1-carboxylate] | 0.192 µM
CCCCC(=O)N1CCC(CN2CC[C@H](NC(=O)c3cc(Cl)c(N)cc3OC)[C@H](OC)C2)CC1 (relative stereo) [Compound 22, cis-4-amino-5-chloro-N-[1-((1-pentanoylpiperidin-4-yl)methyl)-3-methoxypiperidin-4-yl]-2-methoxybenzamide] | 0.073 µM
COc1cc(N)c(Cl)cc1C(=O)N[C@H]1CCN(CC2CCN(C(=S)C(C)(C)C)CC2)C[C@H]1OC (relative stereo) [Compound 38, cis-4-amino-5-chloro-N-[1-((1-(2,2-dimethylpropanethioyl)piperidin-4-yl)methyl)-3-methoxypiperidin-4-yl]-2-methoxybenzamide] | 0.217 µM
CCCC(=S)N1CCC(CN2CC[C@H](NC(=O)c3cc(Cl)c(N)cc3OC)[C@H](OC)C2)CC1 (relative stereo) [Compound 35, cis-4-amino-5-chloro-N-[1-((1-butanethioylpiperidin-4-yl)methyl)-3-methoxypiperidin-4-yl]-2-methoxybenzamide] | 0.148 µM
COc1cc(N)c(Cl)cc1C(=O)N[C@H]1CCN(CC2CCN(C(=O)OCC(C)C)CC2)C[C@H]1OC (relative stereo) [Compound 9, isobutyl 4-[(cis-4-(4-amino-5-chloro-2-methoxybenzamido)-3-methoxypiperidin-1-yl)methyl]piperidine-1-carboxylate] | 0.108 µM
CCCCCC(=O)N1CCC(CN2CC[C@H](NC(=O)c3cc(Cl)c(N)cc3OC)[C@H](OC)C2)CC1 (relative stereo) [Compound 23, cis-4-amino-5-chloro-N-[1-((1-hexanoylpiperidin-4-yl)methyl)-3-methoxypiperidin-4-yl]-2-methoxybenzamide] | 0.061 µM
COc1cc(N)c(Cl)cc1C(=O)N[C@H]1CCN(CCC(=O)Nc2ccc3ncccc3c2)C[C@H]1OC (relative stereo) [Compound 57, cis-4-amino-5-chloro-N-[1-(3-oxo-3-(quinolin-6-ylamino)propyl)-3-methoxypiperidin-4-yl]-2-methoxybenzamide] | 0.053 µM
COc1cc(N)c(Cl)cc1C(=O)N[C@H]1CCN(CC2CCN(C(=S)CCC(C)C)CC2)C[C@H]1OC (relative stereo) [Compound 37, cis-4-amino-5-chloro-N-[1-((1-(4-methylpentanethioyl)piperidin-4-yl)methyl)-3-methoxypiperidin-4-yl]-2-methoxybenzamide] | 0.175 µM
CCSC(=O)N1CCC(CN2CC[C@H](NC(=O)c3cc(Cl)c(N)cc3OC)[C@H](OC)C2)CC1 (relative stereo) [Compound 39, S-ethyl 4-[(cis-4-(4-amino-5-chloro-2-methoxybenzamido)-3-methoxypiperidin-1-yl)methyl]piperidine-1-carbothioate] | 0.047 µM
COC(=O)N1CCC(CN2CC[C@H](NC(=O)c3cc(Cl)c(N)cc3OC)[C@H](OC)C2)CC1 (relative stereo) [Compound 5, methyl 4-[(cis-4-(4-amino-5-chloro-2-methoxybenzamido)-3-methoxypiperidin-1-yl)methyl]piperidine-1-carboxylate] | 0.13 µM
COc1cc(N)c(Cl)cc1C(=O)N[C@H]1CCN(CC2CCN(C(=O)CC(C)(C)C)CC2)C[C@H]1OC (relative stereo) [Compound 26, cis-4-amino-5-chloro-N-[1-((1-(3,3-dimethylbutanoyl)piperidin-4-yl)methyl)-3-methoxypiperidin-4-yl]-2-methoxybenzamide] | 0.045 µM
COc1cc(N)c(Cl)cc1C(=O)N[C@H]1CCN(CC2CCN(C(=S)CC(C)C)CC2)C[C@H]1OC (relative stereo) [Compound 36, cis-4-amino-5-chloro-N-[1-((1-(3-methylbutanethioyl)piperidin-4-yl)methyl)-3-methoxypiperidin-4-yl]-2-methoxybenzamide] | 0.175 µM
COc1cc(N)c(Cl)cc1C(=O)N[C@@H]1CCN(CC2CCN(S(C)(=O)=O)CC2)C[C@@H]1OC [Compound 44, (3S,4R)-4-amino-5-chloro-N-[1-((1-(methylsulfonyl)piperidin-4-yl)methyl)-3-methoxypiperidin-4-yl]-2-methoxybenzamide] | 0.116 µM
C=CCOC(=O)N1CCC(CN2CC[C@H](NC(=O)c3cc(Cl)c(N)cc3OC)[C@H](OC)C2)CC1 (relative stereo) [Compound 10, allyl 4-[(cis-4-(4-amino-5-chloro-2-methoxybenzamido)-3-methoxypiperidin-1-yl)methyl]piperidine-1-carboxylate] | 0.093 µM
COc1cc(N)c(Cl)cc1C(=O)N[C@H]1CCN(CC2CCN(C(=S)C(C)C)CC2)C[C@H]1OC (relative stereo) [Compound 30, cis-4-amino-5-chloro-N-[1-((1-(2-methylpropanethioyl)piperidin-4-yl)methyl)-3-methoxypiperidin-4-yl]-2-methoxybenzamide] | 0.108 µM
CCCCC(CC)COC(=O)N1CCC(CN2CC[C@H](NC(=O)c3cc(Cl)c(N)cc3OC)[C@H](OC)C2)CC1 (relative stereo) [Compound 11, 2-ethylhexyl 4-[(cis-4-(4-amino-5-chloro-2-methoxybenzamido)-3-methoxypiperidin-1-yl)methyl]piperidine-1-carboxylate] | 0.03 µM
CCCCC(=S)N1CCC(CN2CC[C@H](NC(=O)c3cc(Cl)c(N)cc3OC)[C@H](OC)C2)CC1 (relative stereo) [Compound 33, cis-4-amino-5-chloro-N-[1-((1-pentanethioylpiperidin-4-yl)methyl)-3-methoxypiperidin-4-yl]-2-methoxybenzamide] | 0.107 µM
COc1cc(N)c(Cl)cc1C(=O)N[C@H]1CCN(CCCCCC(=O)Nc2ccc3[nH]ccc3c2)C[C@H]1OC (relative stereo) [Compound 62, cis-4-amino-5-chloro-N-[1-(6-oxo-6-(1H-indol-5-ylamino)hexyl)-3-methoxypiperidin-4-yl]-2-methoxybenzamide] | 0.044 µM
CCCC(C)C(=O)N1CCC(CN2CC[C@H](NC(=O)c3cc(Cl)c(N)cc3OC)[C@H](OC)C2)CC1 (relative stereo) [Compound 24, cis-4-amino-5-chloro-N-[1-((1-(2-methylpentanoyl)piperidin-4-yl)methyl)-3-methoxypiperidin-4-yl]-2-methoxybenzamide] | 0.058 µM
